Where two headings read alike, the source gives them in different places.

A short description of data set [1]: HPLC determination of partition coefficients in acetonitrile phase systems. As to the method:
In these tests, known organic flavor volatile compounds were added to 2 ml aliquots of 50:50 acetonitrile:water, 22° C., in 4 ml HPLC vials, mixed thoroughly and capped with polytetrafluoroethylene septum caps. […] The samples were injected (20 uL) into a continuous HPLC apparatus. […] The HPLC apparatus was a Waters WISP model 710B sample injector, 6000A pump, and 481 UV detector set at 210 nm (Waters Associates, Milford, MA). A Radiomatic Flo-One Beta unit was used for peak integration (Radiomatic Instruments, Inc., Tampa FL). An Alltech adsorbosphere C18 column, 5 micron, 250 mm×4.6 mm was used (Alltech Associates, Deerfield, IL) to achieve component separation in accordance with conventional HPLC processing. The mobile phase had the following composition: 45% acetonitrile, 55% water, 0.2% KH2 PO4, pH 3.0. The flow rate was 1.0 ml/minute. The vials were then placed in a freezer (-20° C.) for one hour. 250 uL of the resulting organic and aqueous phases were then placed in a limited volume insert vial, the sample injected and peak integrations acquired. The partition coefficient, P, was calculated by dividing the organic phase by the aqueous phase integration values.
To determine the time period appropriate for complete partitioning, four sulfur volatiles and 1-methionine were treated as above, except that samples were taken at different times up to 60 minutes FIGS. 2a, 2b and 3).

Data set [2] can be described thus: Binary acetonitrile/water cold phase extraction of caffeine from cola beverage. In kind it is physicochemical. To be noted: cola plus acetonitrile, -20° C. for 1 hour. As to the method:
[…]. The sample was shaken for 20 seconds and was chilled to -20° C. for 1 hour. 0.3 ml of the organic layer was then placed in an HPLC sampling vial. The HPLC system used was: a phenyl reversed phase column (Alltech Associates, Deerfield, Ill.) 250×4.6 mm, 5 micron. 25% acetonitrile, 75% water 0.2% w/v KH2 PO4, pH 3.0 mobile phase, 1.5 ml/min. flow rate 20 uL injection by the autosampler. UV detection at 210 nm.

Setting [3] is: Acetonitrile/water 1:1, 1 hr. at -20° C., organic phase divided by aqueous phase integration values.
Where [4] appears, read: Acetonitrile/water/chloroform 5:5:1, 22° C., organic phase divided by aqueous phase integration values.

For `CCCCC(=O)OCC` [Ethyl Valerate], the “Partition Coefficient Binary” value in data set [1] (setting [3]) amounted to 25.9. Also, the “Partition Coefficient Ternary” value in data set [1] (setting [4]) came out at 25.6.

In the case of `Cn1c(=O)c2c(ncn2C)n(C)c1=O` [Caffeine], in data set [2], the “extraction into the organic phase” value is listed as “selectively extracted into the organic phase”.

`OCCc1ccccc1` [2-phenyl ethanol]: the “Partition Coefficient Ternary” value in data set [1] turned out to be 2.3. For the same compound, the “Partition Coefficient Binary” value in data set [1] (60 min) came out at 3.3.

`CSCC[C@H](N)C(=O)O` [1-methionine]: the “Partition Coefficient Binary” value in data set [1] (setting [3]) is given as 0.03. The “Partition Coefficient Ternary” value in data set [1] (setting [4]) is recorded as 0.2.

As for `CCCC(=O)OCC` [Ethyl Butyrate], the “Partition Coefficient Ternary” value in data set [1] turned out to be 17.6. In data set [1] (60 min), the “Partition Coefficient Binary” value is on record as 14.3.

As for `CSC` [Dimethyl sulfide], the “Partition Coefficient Ternary” value in data set [1] is recorded as 6.6. Moreover, in data set [1] (60 min), the “Partition Coefficient Binary” value is given as 5.2.

For the compound `N[C@@H](Cc1ccccc1)C(=O)O` [1-phenylalanine], the “Partition Coefficient Binary” value in data set [1] (setting [3]) stood at 0.1. The “Partition Coefficient Ternary” value in data set [1] (setting [4]) was determined as 0.3.

As for `CCCCCCCC(=O)O` [Caprylic acid], the “Partition Coefficient Binary” value in data set [1] (setting [3]) is 20.8. Further, the “Partition Coefficient Ternary” value in data set [1] (setting [4]) was found to be 20.6.

Take `O=C1O[C@H]([C@@H](O)CO)[C@@H](O)[C@@H]1O` [1-galactono-1,4-lactone]: in data set [1], the “Partition Coefficient Ternary” value is 0.2. Further, the “Partition Coefficient Binary” value in data set [1] (60 min) is reported as 0.2.

For the compound `S` [Hydrogen sulfide], in data set [1] (setting [3]), the “Partition Coefficient Binary” value came out at 4.6. Besides, the “Partition Coefficient Ternary” value in data set [1] (setting [4]) stood at 5.2.
